Experimental data taken from US20120129878A1, “TABLET” (Takeda Pharmaceutical Company Limited, priority 2009, published 2012).

Biological target: dipeptidyl peptidase (DPP-IV) (Homo sapiens, UniProt P27487)
Experiment: DPP-IV inhibitory activity (statement only)
Assay type: biochemical
Conditions: metabolite of compound (A); statement without data

dipeptidyl peptidase (DPP-IV), sequence (P27487 whole entry, species assumed): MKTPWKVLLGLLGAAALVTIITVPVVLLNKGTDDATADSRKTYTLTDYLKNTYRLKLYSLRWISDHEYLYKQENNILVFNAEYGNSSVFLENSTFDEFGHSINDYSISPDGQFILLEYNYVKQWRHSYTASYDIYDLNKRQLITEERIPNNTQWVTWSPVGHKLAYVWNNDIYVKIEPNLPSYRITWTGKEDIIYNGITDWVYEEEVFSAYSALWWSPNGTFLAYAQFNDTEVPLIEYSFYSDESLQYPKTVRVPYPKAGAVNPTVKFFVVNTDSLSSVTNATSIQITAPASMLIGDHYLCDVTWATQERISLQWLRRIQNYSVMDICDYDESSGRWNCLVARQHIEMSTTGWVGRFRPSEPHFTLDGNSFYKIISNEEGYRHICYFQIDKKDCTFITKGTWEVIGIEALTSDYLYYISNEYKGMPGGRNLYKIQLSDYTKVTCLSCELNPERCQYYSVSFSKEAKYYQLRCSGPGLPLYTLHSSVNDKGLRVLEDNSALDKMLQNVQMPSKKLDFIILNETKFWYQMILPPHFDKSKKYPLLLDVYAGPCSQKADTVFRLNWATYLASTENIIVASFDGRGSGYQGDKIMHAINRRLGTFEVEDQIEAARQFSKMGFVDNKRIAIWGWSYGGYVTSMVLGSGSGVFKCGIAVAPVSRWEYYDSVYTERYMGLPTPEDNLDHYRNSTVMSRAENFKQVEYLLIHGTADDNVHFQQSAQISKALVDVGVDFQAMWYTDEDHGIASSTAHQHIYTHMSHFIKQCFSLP

N#Cc1ccc(F)cc1Cn1c(N2CCC[C@@H](N)C2)cc(=O)[nH]c1=O
DPP-IV inhibitory activity: has a DPP-IV inhibitory activity
